The source of these data is patent US8026244B2, “Thioxanthine derivatives and their use as inhibitors of MPO” (AstraZeneca AB, priority 2006, dated 2011).

pIC50: −log10 of the molar value.

The target of the test is T1, human MPO (Homo sapiens, UniProt P05164).
T1 sequence (P05164 49-745): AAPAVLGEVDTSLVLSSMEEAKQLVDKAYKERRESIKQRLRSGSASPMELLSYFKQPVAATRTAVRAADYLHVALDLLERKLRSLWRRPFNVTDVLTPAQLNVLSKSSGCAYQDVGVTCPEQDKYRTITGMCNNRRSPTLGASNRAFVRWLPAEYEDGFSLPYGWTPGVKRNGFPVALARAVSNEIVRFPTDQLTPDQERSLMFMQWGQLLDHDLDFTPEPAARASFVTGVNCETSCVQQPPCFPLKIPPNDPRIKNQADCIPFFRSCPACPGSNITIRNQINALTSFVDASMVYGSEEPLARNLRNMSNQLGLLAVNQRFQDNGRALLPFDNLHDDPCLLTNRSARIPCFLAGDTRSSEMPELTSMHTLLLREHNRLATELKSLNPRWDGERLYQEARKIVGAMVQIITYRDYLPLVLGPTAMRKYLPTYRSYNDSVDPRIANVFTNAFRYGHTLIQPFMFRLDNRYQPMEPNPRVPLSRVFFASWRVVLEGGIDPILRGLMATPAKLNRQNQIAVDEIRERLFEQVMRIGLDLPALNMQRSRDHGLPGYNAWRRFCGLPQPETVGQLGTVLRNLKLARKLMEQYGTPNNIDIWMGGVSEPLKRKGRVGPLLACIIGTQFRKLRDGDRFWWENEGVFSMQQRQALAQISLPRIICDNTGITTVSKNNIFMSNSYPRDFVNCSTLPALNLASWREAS
Put plainly: MPO inhibition screen (TMB oxidation, absorbance), compounds alone or with added tyrosine. Format: biochemical. The following applies: in the presence of tyrosine (final concentration 8 μM); human MPO 2.5 nM; H2O2 100 μM; pH 6.5. As to the method:
Methods for the determination of MPO inhibitory activity are disclosed in patent application WO 02/090575. The pharmacological activity of compounds according to the invention was tested in the following screen in which the compounds were either tested alone or in the presence of added tyrosine:
Assay buffer: 20 mM sodium/potassium phosphate buffer pH 6.5 containing 10 mM taurine and 100 mM NaCl.
Developing reagent: 2 mM 3,3′,5,5′-tetramethylbenzidine (TMB), 200 μM KI, 200 mM acetate buffer pH 5.4 with 20% DMF.
To 10 μl of diluted compounds in assay buffer, 40 μl of human MPO (final concentration 2.5 nM), with or without 20 μM tyrosine (final concentration, if present, 8 μM), was added and the mixture was incubated for 10 minutes at ambient temperature. Then 50 μl of H2O2 (final concentration 100 μM), or assay buffer alone as a control, were added. After incubation for 10 minutes at ambient temperature, the reaction was stopped by adding 10 μl 0.2 mg/ml of catalase (final concentration 18 μg/ml). The reaction mixture was left for an additional 5 minutes before 100 μl of TMB developing reagent was added. The amount of oxidised 3,3′,5,5′-tetramethylbenzidine formed was then measured after about 5 minutes using absorbance spectroscopy at about […]. IC50 values were then determined using standard procedures.
What is called pIC50 is −log10 of the IC50, conventionally taken in molar units. Consider `O=c1[nH]c(=S)n(Cc2ccncc2)c2nc[nH]c12` [Example 3, 3-(pyridin-4-ylmethyl)-2-thioxo-1,2,3,7-tetrahydro-6H-purin-6-one], for which the negative-log IC50 (pIC50) is 7.00.
To `CC(c1nc2ccccc2[nH]1)n1c(=S)[nH]c(=O)c2[nH]cnc21` (stereo not drawn) [Example 9, 3-[1-(1H-benzimidazol-2-yl)ethyl]-2-thioxo-1,2,3,7-tetrahydro-6H-purin-6-one] belongs 5.00; to `CC(Cn1c(=S)[nH]c(=O)c2[nH]cnc21)NCc1cccn1C` (stereo not drawn) [Example 44, 3-(2-{[(1-methyl-1H-pyrrol-2-yl)methyl]amino}propyl)-2-thioxo-1,2,3,7-tetrahydro-6H-purin-6-one], 5.66.
